The values that follow come from patent US12509437B2, “Substituted thiophene carboxamides and derivatives thereof as microbicides” (Bayer Aktiengesellschaft, priority 2019, dated 2025).

This data set can be described thus: LogP by HPLC on reversed phase columns (EEC directive 79/831 Annex V.A8). The format is physicochemical. As for the experimental part:
[table] If more than one Log P value is available within the same method, all the values are given and separated by “+”. Calibration was done with straight-chain alkan2-ones (with 3 to 16 carbon atoms) with known Log P values (measurement of Log P values using retention times with linear interpolation between successive alkanones). Lambda-max-values were determined using UV-spectra from 200 nm to 400 nm and the peak values of the chromatographic signals.

[1] abbreviates: method [a]: LC-UV, acidic range, 0.1% formic acid in water and acetonitrile as eluent.

The structures appear in SMILES notation.

As for `Cc1c(C(=O)NCC(=O)O)sc(Br)c1Br` [N-[(4,5-dibromo-3-methyl-2-thienyl)carbonyl]glycine], the chromatographic logP (reversed phase HPLC columns, preparation examples, method not indicated, read-out: Log P) was 2.05.

With `Cc1c(C(=O)NC2(C#N)CC2)sc(Br)c1Br` [I.027], the LogP (method [a]) is 2.80^[a].

Turning to `Cc1c(C(=O)NC(C(=O)NO)C(C)C)sc(Br)c1Br` (centres unmarked) [I.115], the LogP (method [a]) was 2.31^[a].

For `COC(=O)CNC(=S)c1sc(Cl)c(Cl)c1C` [I.113], the LogP (method [a]) is 3.60^[a].

As for `Cc1c(C(=O)N[C@H]2CCCNC2=O)sc(Cl)c1Cl` [I.162], under setting [1], the LogP is 2.12^[a].

As to `Cc1c(C(=O)NC(Cc2c[nH]c3ccccc23)C(=O)O)sc(Br)c1Br` (centres unmarked) [I.073], the LogP (method [a]) is 3.07^[a].

For the molecule `COC(=O)CC(C)NC(=O)c1sc(Br)c(Br)c1C` (centres unmarked) [I.109], the LogP (method [a]) is 3.14^[a].

In the case of `CCNC(=O)SC[C@H](NC(=O)c1sc(Cl)c(Cl)c1C)C(=O)OC` [I.120], the LogP (method [a]) was 3.22^[a].

On to `Cc1c(C(=O)NC2CCOC2=O)sc(Br)c1Br` (centres unmarked) [I.021], for which, under setting [1], the LogP is 2.41^[a].

In the case of `CCOC(=O)C(C)NC(=S)c1sc(Br)c(Br)c1C` (centres unmarked) [I.150], the LogP (method [a]) was 4.38^[a].

Take `COC(=O)C(NC(=O)c1sc(Cl)c(Cl)c1C)C(=O)OC` [I.084]: the LogP (method [a]) was 3.01^[a].

Turning to `CCOC(=O)C(Cc1c[nH]c2ccccc12)NC(=O)c1sc(Br)c(Br)c1C` (centres unmarked) [I.036], the LogP (method [a]) was 4.15^[a].

As for `Cc1c(C(=O)NCC(=O)NC2(C(=O)O)CC2)sc(Br)c1Br` [I.025], the LogP (method [a]) is 1.95^[a].

Regarding `Cc1c(C(=O)NC(CC(N)=O)C(=O)O)sc(Cl)c1Cl` (centres unmarked) [I.068], where the note is “method [a]”, the LogP is 1.73^[a].

In the case of `Cc1c(C(=O)NC(C#N)C(C)C)sc(Br)c1Br` (centres unmarked) [I.028], the LogP (method [a]) is 3.64^[a].

In the case of `Cc1c(C(=O)NC(C(=O)OC(C)C)C2CC2)sc(Cl)c1Cl` (centres unmarked) [I.154], the LogP (method [a]) is 4.23^[a].

`Cc1c(C(=O)N[C@H]2CCSC2=O)sc(Br)c1Br` [I.010]: the LogP under setting [1] is 3.04^[a].

On to `COC(=O)[C@H](CC(N)=O)NC(=O)c1sc(Cl)c(Cl)c1C` [I.055], for which the LogP (method [a]) is 2.02^[a].

Turning to `COC(=O)CC1(NC(=O)c2sc(Cl)c(Cl)c2C)CC1` [I.082], the LogP (method [a]) was 2.98^[a].

Turning to `COC(=O)C1(NC(=O)c2sc(Cl)c(Cl)c2C)CC(F)(F)C1` [I.143], the LogP (method [a]) was 3.43^[a].

Consider `CCSC(=O)C(NC(=O)c1sc(Br)c(Br)c1C)C(C)C` (centres unmarked) [I.008], for which, where the note is “method [a]”, the LogP is 4.74^[a].

As for `Cc1c(C(=O)NC2(C#N)CCCSC2)sc(Br)c1Br` (centres unmarked) [I.177], the LogP (method [a]) was 3.50^[a].

On to `CCOC(=O)C1(NC(=O)c2sc(Br)c(Br)c2C)CCCC1` [I.106], for which the LogP (method [a]) was 4.09^[a].

For the molecule `CON(C)C(=O)C(NC(=O)c1sc(Br)c(Br)c1C)C(C)C` (centres unmarked) [I.061], where the note is “method [a]”, the LogP was 3.71^[a].

With `COC(=O)CC(NC(=O)c1sc(Cl)c(Cl)c1C)C(=O)OC` (centres unmarked) [I.118], the LogP (method [a]) is 3.00^[a].

For the molecule `COC(=O)C1(NC(=O)c2sc(Br)c(Br)c2C)CCOCC1` [I.107], for the setting “method [a]”, the LogP is 2.82^[a].

Consider `COC(=O)[C@H](CSC(=O)N(C)C)NC(=O)c1sc(Cl)c(Cl)c1C` [I.119], for which, for the setting “method [a]”, the LogP was 3.35^[a].

Turning to `CCOC(=O)CN(C)C(=O)c1sc(Cl)c(Cl)c1C` [I.057], under “method [a]”, the LogP is 3.15^[a].

On to `Cc1c(C(=O)NC(C#N)c2ccccc2)sc(Br)c1Br` (centres unmarked) [I.029], for which the LogP (method [a]) is 3.85^[a].

Consider `CCOC(=O)CN(OC)C(=O)c1sc(Cl)c(Cl)c1C` [I.098], for which the LogP (method [a]) is 3.87^[a].

For `COC(=O)[C@H](CC(=O)OC(C)(C)C)NC(=O)c1sc(Cl)c(Cl)c1C` [I.125], the LogP (method [a]) was 4.17^[a].

Consider `Cc1c(C(=O)NC2C(=O)SC2(C)C)sc(Br)c1Br` (centres unmarked) [I.001], for which the LogP under setting [1] was 3.99^[a].

On to `Cc1c(C(=O)NC2(C(=O)OC(C)C)CCC2)sc(Cl)c1Cl` [I.141], for which, for the setting “method [a]”, the LogP is 4.05^[a].

For `COC(=O)C(C)NC(=S)c1sc(Br)c(Br)c1C` (centres unmarked) [I.149], under “method [a]”, the LogP is 4.05^[a].

For `Cc1c(C(=O)NC2CCNC(=O)C2)sc(Br)c1Br` (centres unmarked) [I.066], the LogP under setting [1] is 1.93^[a].
